Test results published in publication PMC8388125, “Kinetic and Structural Characterization of the Self-Labeling Protein Tags HaloTag7, SNAP-tag, and CLIP-tag” (Biochemistry, 2021).
Changes are numbered by the printed parent chain.

Key:
[1] = molecular target: T1, hAGT (human O^6-alkylguanine-DNA alkyltransferase) (Homo sapiens, UniProt P16455); assay: hAGT labeling kinetics via microplate reader (FP over time); type: biochemical
T1 construct: StrepTag-II (N); enterokinase cleavage site (N); His10 (C); made in house; host or cells: E. coli BL21(DE3)-pLysS
T1 sequence (P16455 1-207): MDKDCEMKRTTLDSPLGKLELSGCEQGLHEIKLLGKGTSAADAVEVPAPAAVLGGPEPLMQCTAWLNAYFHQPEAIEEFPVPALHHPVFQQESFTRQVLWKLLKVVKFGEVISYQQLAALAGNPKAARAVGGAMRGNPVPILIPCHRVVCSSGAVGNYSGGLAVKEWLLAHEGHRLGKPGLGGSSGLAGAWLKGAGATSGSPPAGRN
Description: (§1) Labeling kinetics of SNAP and CLIP substrates were measured by recording FP over time using a microplate reader in a manner analogous to that of HT7 labeling kinetics described above with the following changes. The fluorescent substrate concentration was fixed to 20 nM, and protein concentrations were varied from 15 to 900 nM. Measurements were performed in SNAP-FP buffer.
(§2) Kinetic data from microplate reader assays were fitted to a simplified kinetic model (eq 13) described by differential eqs 14–16 using DynaFit. The dead time of the measurements and baseline FP value were put in as fixed parameters. Standard deviations (normal distribution verified) and confidence intervals of fitted parameters were estimated with the Monte Carlo method with standard settings (N = 1000, 5% worst fits discarded). In the case of BG, CP, and BC kinetics, the substrate concentration was fitted by DynaFit to rule out quantification errors of the BG, CP, or BC fluorophores. Accurate fitting of the concentration was ensured by including conditions under which protein is limiting and no maximum FP value was reached.

SNAP-tag (SNAP) [2] = molecular target: T2, SNAP-tag (SNAP) (Homo sapiens, UniProt P16455, A127T/A154D/C150Q/C62A/G131K/G132T/G153L/K125A/K32I/L33F/M134L/N157G/Q115S/Q116H/R128A/R135S/S151G/S152D/S159E); assay: SNAP labeling kinetics via microplate reader (FP over time); type: biochemical; conditions: SNAP, plate reader, kinetic model 1
T2 construct: made in house; host or cells: E. coli BL21(DE3)-pLysS
T2 sequence (P16455 1-182 K32I/L33F/C62A/Q115S/Q116H/K125A/A127T/R128A/G131K/G132T/M134L/R135S/C150Q/S151G/S152D/G153L/A154D/N157G/S159E limits assumed): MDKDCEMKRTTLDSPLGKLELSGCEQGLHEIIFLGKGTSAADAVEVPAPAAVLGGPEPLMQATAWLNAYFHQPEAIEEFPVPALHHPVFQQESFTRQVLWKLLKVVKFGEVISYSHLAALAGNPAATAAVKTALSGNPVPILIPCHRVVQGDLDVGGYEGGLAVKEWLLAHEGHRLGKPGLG
Description: as §1, §2

SNAP^C145A [3] = molecular target: T3, SNAP^C145A (Homo sapiens, UniProt P16455, A127T/A154D/C145A/C150Q/C62A/G131K/G132T/G153L/K125A/K32I/L33F/M134L/N157G/Q115S/Q116H/R128A/R135S/S151G/S152D/S159E); assay: Affinity of SNAP^C145A for BG and CP fluorescent substrates by fluorescence polarization; type: binding
T3 construct: made in house; host or cells: E. coli BL21(DE3)-pLysS
T3 sequence (P16455 1-182 K32I/L33F/C62A/Q115S/Q116H/K125A/A127T/R128A/G131K/G132T/M134L/R135S/C145A/C150Q/S151G/S152D/G153L/A154D/N157G/S159E limits assumed): T2 sequence (P16455 1-182 K32I/L33F/C62A/Q115S/Q116H/K125A/A127T/R128A/G131K/G132T/M134L/R135S/C150Q/S151G/S152D/G153L/A154D/N157G/S159E limits assumed) with C145A
Description: Binding affinities of SNAP^C145A and SNAPf^C145A for BG-Alexa488, CP-Alexa488, BG-fluorescein, CP-fluorescein, BG-MAP555, BG-JF549, BG-TMR(6), BG-TMR(5), CP-TMR, BG-CPY(6), BG-CPY(5), CP-CPY, BG-SiR, CP-SiR, BG-JF646, BG-Atto565, BG-Atto590, BG-sulfo-Cy3, BG-Cy3, BG-sulfo-Cy5, and BG-Cy5 were determined by fluorescence polarization in a manner analogous to that for HT7 affinities for CA substrates described above with the following changes. Fluorescent substrates were titrated at a final concentration of 50 nM against protein concentrations ranging from 0 to 250 μM at room temperature using 0.1 g/L BSA and 1 mM DTT (SNAP-FP buffer). The FP value of each dye fully reacted with the native SNAP/SNAPf was used to improve fitting of the upper plateau of the curves by adding an extra data point at a protein concentration of 0.005 M.

SNAP-tag (SNAP) [4] = molecular target: T2, SNAP-tag (SNAP); assay: SNAP labeling kinetics via stopped flow (fluorescence anisotropy); type: biochemical; conditions: model 2
Description: Labeling kinetics of SNAP with BG-TMR were measured via stopped-flow in a manner analogous to that for HT7 kinetics described above; however, the final substrate concentration was fixed at 2 μM, and the protein concentration was varied from 1.875 to 50 μM. The activity buffer was supplemented with 1 mM DTT.
Kinetic stopped-flow data were preprocessed using a custom R script.[36],[37] Recorded pretrigger time points were removed, and time points were adjusted to start at time zero. Values from replicates were averaged. The anisotropy of the free dye was calculated by averaging anisotropy values of the baseline measurements. Preprocessed data were fitted to a kinetic model (eqs 5 and 6) described by differential eqs 7–10 using the DynaFit software.[38] The anisotropy of the free dye and the mixing delay of the stopped-flow machine were set as fixed offset and delay parameters in DynaFit. It was assumed that the protein substrate complex and the reacted product are contributing equally to the anisotropy signal. […] Standard deviations (normal distribution verified) and confidence intervals of fitted parameters were estimated with the Monte Carlo method[39] with standard settings (N = 1000, 5% worst fits discarded). In the case of SNAP kinetics with BG-TMR, the substrate concentration was fitted by DynaFit to rule out quantification errors of the BG-quenched fluorophore. Accurate fitting of the concentration was ensured by including conditions in which protein is limiting and no maximum FP value was reached.

CLIP-tag (CLIP) = molecular target: T4, CLIP-tag (CLIP) (Homo sapiens, UniProt P16455, A121V/A127T/A154D/C150Q/C62A/G131N/G132T/G153S/K125A/K32I/L33F/M134L/M60I/N157P/Q115S/Q116H/R128A/R135D/S151G/S152D/S159L/Y114E); assay: CLIP labeling kinetics via microplate reader (FP over time); type: biochemical; conditions: CLIP cross-reactivity
T4 construct: made in house; host or cells: E. coli BL21(DE3)-pLysS
T4 sequence (P16455 1-182 K32I/L33F/M60I/C62A/Y114E/Q115S/Q116H/A121V/K125A/A127T/R128A/G131N/G132T/M134L/R135D/C150Q/S151G/S152D/G153S/A154D/N157P/S159L limits assumed): T2 sequence (P16455 1-182 K32I/L33F/C62A/Q115S/Q116H/K125A/A127T/R128A/G131K/G132T/M134L/R135S/C150Q/S151G/S152D/G153L/A154D/N157G/S159E limits assumed) with M60I, Y114E, A121V, K131N, S135D, L153S, G157P, E159L
Description: as §1, §2

SNAP-tag (SNAP) [5] = molecular target: T2, SNAP-tag (SNAP); assay: SNAP competitive labeling kinetics against BG-Alexa488; type: biochemical; conditions: nonfluorescent substrates, competition with BG-Alexa488
Description: Competitive kinetics were measured by recording FP over time using a microplate reader in a manner analogous to that for HT7 competition kinetics described above using 100 nM BG-Alexa488 as the fluorescent substrate in SNAP-FP buffer.
Data were fitted to a simplified kinetic competition model (eqs 19 and 20) described by differential eqs 21–25 using DynaFit. The dead time of the measurements and baseline FP value were put in as fixed parameters. Standard deviations (normal distribution verified) and confidence intervals of fitted parameters were estimated with the Monte Carlo method with standard settings (N = 1000, 5% worst fits discarded). [drawing 19] 19 [drawing 20] 20 where P is the SLP protein, S is the fluorescent SLP substrate, I is the nonfluorescent SLP substrate (inhibitor), PS is the protein–fluorescent substrate conjugate, and PI is the protein–nonfluorescent substrate conjugate. [drawing 21] 21 [drawing 22] 22 [drawing 23] 23 [drawing 24] 24 [drawing 25] 25

SNAP^C145A [6] = molecular target: T3, SNAP^C145A; assay: Affinity of SNAP^C145A for nonfluorescent substrates via FP competition assay against CP-TMR; type: binding; conditions: FP competition against CP-TMR, room temperature
Description: Binding affinities of SNAP^C145A for BG, CP, BG-Ac, CP-Ac, and BC-Ac were obtained as previously described for HT7 by titrating 5 μM protein and 50 nM CP-TMR against nonfluorescent substrate concentrations ranging from 150 nM to 1.5 mM. Experimental conditions and data analysis were identical despite the fact that 1 mM DTT was added to the buffer and the assay was performed at room temperature.

For `CN(C)c1ccc2c(-c3cc(C(=O)NCc4ccc(COc5nc(N)nc6[nH]cnc56)cc4)ccc3C(=O)[O-])c3ccc(=[N+](C)C)cc-3oc2c1` [BG-TMR], the “times slower labeling of hAGT than of SNAP” value ([1]; hAGT vs SNAP) was 130 times, the “kapp (value ± standard deviation)” value ([1]; hAGT, plate reader, model 1) was “(3.38 ± 0.01) × 10^3 M^–1 s^–1” and the “kapp (value ± standard deviation)” value (SNAP-tag (SNAP) [2]) was “(4.29 ± 0.01) × 10^5 M^–1 s^–1”. For the same compound, the “fold lower Kd^C145A compared to Kd calculated from stopped-flow experiments using active SNAP” value (SNAP^C145A [3]; SNAP^C145A vs active SNAP) was 3 fold, the Kd (SNAP^C145A [3]; SNAP^C145A, fluorescence polarization, room temperature) was 0.68 µM and the “k2 (± S.D.)” value (SNAP-tag (SNAP) [4]) was 1.24 (± 0.02) s-1. For the same compound, the “k-1 (± S.D.)” value (SNAP-tag (SNAP) [4]) was 1.02 (± 0.03) s-1 and the “times slower reaction of CLIP than with BC-TMR” value (CLIP-tag (CLIP)) was 100 times.

In the case of `CC(=O)NCc1ccc(COc2cc(Cl)nc(N)n2)cc1` [CP-Ac], the “kapp (value ± standard deviation)” value (SNAP-tag (SNAP) [5]) is reported as “(3.45 ± 0.38) × 10^3 M^–1 s^–1” and the Kd (SNAP^C145A [6]) is reported as 201 µM.
